Results as given in PubChem BioAssay (NCI).
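Grown in 96-well plates, cells were treated for 48 hours with each compound at five concentrations. Insufficient inhibition: endpoint recorded as highest concentration tested. At the GI50, growth is halved. At the TGI there is no net growth.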

Columns and labels:
Test in all cases: DTP human tumour cell line panel, 48 h
HCT-116 colon = tested on: HCT-116 colon
COLO 205 colon = tested on: COLO 205 colon
NCI/ADR-RES ovarian = tested on: NCI/ADR-RES ovarian
NCI-H23 lung = tested on: NCI-H23 lung
SK-MEL-2 melanoma = tested on: SK-MEL-2 melanoma
K-562 leukemia = tested on: K-562 leukemia
PC-3 prostate = tested on: PC-3 prostate
SR leukemia = tested on: SR leukemia

Row | Compound | GI50 (HCT-116 colon) [µM] | TGI (HCT-116 colon) [µM] | GI50 (COLO 205 colon) [µM] | TGI (COLO 205 colon) [µM] | GI50 (NCI/ADR-RES ovarian) [µM] | TGI (NCI/ADR-RES ovarian) [µM] | GI50 (NCI-H23 lung) [µM] | TGI (NCI-H23 lung) [µM] | GI50 (SK-MEL-2 melanoma) [µM] | TGI (SK-MEL-2 melanoma) [µM] | GI50 (K-562 leukemia) [µM] | TGI (K-562 leukemia) [µM] | GI50 (PC-3 prostate) [µM] | TGI (PC-3 prostate) [µM] | GI50 (SR leukemia) [µM] | TGI (SR leukemia) [µM]
1 | CS(=O)c1ccc(-c2nc(-c3ccc(F)cc3)c(-c3ccncc3)[nH]2)cc1 (stereo unspecified) | 20.1 | > 63.8 | 14.7 | 50.2 | > 100 | > 100 | 59.2 | > 100 | 23 | 49.4 | 25 | > 100 | 35.6 | > 89.4 | 16.4 | > 77
2 | CCOC(=O)c1c(C)n(CC(C)C)c2c1cc1oc(=O)c(=O)n3cnc2c13 | 14.8 | > 50 | 20.7 | > 50 | 11.6 | 38 | 12.3 | 31 | 38.7 | > 50 | 16.1 | > 50 | 24.6 | > 50 | 10.4 | > 50
3 | O=[N+]([O-])c1cc(Cl)cc2c1nc(NCCO)c1ccccc12 |  | > 100 |  | 0.236 |  | > 100 |  | > 80.9 |  | 43.8 |  | > 94 |  | > 70.4 |  | 7.09
4 | Cc1[nH]nc2c1N=C(c1ccccc1F)c1cc(C#N)ccc1N2 | 0.143 | 6.91 | 0.134 | 5.34 | 4.72 | > 25 | 3.74 | 14.2 | 2.39 | 8.81 | 0.11 | > 25 | 4.93 | > 25 | 0.0641 | > 18
5 | O=C(Nc1cccc2cccnc12)c1ccc(N2C(=O)[C@@H]3[C@H](C2=O)[C@@H]2C=C[C@H]3C2)cc1 | 35.8 | > 100 | 37.6 | > 100 | 17.6 | 81.2 | 23.5 | > 100 | 27 | 80.1 | 24.5 | > 100 | 25.1 | > 100 | 30 | > 100
6 | CCCCN(CCCC)CC(C)(C)C(O)c1ccc(OC)c2ccccc12 (stereo unspecified) | 1.08 | 10.8 | 3.1 | 15.8 | 6.13 | 23.8 | 2.29 | 9.36 | 5.11 | 17.7 | 2.51 | 13.6 | 2.88 | 13.7 | 2.89 | 8.34
7 | CCCCCC(=O)OCC(=O)O[C@@H]1C[C@]2(C(C)C)O[C@@]1(C)[C@@H]1CC[C@@H](C)[C@H]1[C@@H]2OC(=O)/C=C/c1ccccc1 | 32.2 | > 100 | > 61.3 | > 95.9 | 0.291 | > 70.6 | > 52.8 | > 75.7 | > 58.2 | > 81 | > 41.3 | > 100 | 8.58 | > 100 | 19.7 | > 100
8 | CC12CCc3ccccc3C1=Nc1ccccc12 (stereo unspecified) |  | > 100 |  | > 100 |  | 64.6 |  | > 100 |  | > 100 |  | > 100 |  | > 100 |  | > 100
9 | CC1CCCN(CC(O)CN2CCCc3ccccc32)C1 (stereo unspecified) |  | > 100 |  | > 100 |  | > 100 |  | > 100 |  | > 100 |  | > 100 |  | > 100 |  | > 100
10 | CCOC(=O)N1C/C(=C/c2ccc(OC)cc2)C(=O)/C(=C/c2ccc(OC)cc2)C1 | 0.21 | 0.579 | 2.18 | 5.28 | 3.35 | > 100 | 3.26 | 20.2 | 13.5 | > 56.3 | 1.72 | > 100 | 2.53 | 8.61 | 0.579 | > 32.7
11 | NC(N)=N/N=C/c1cccc(Cl)c1Cl | 3.24 | 10.8 | 1.69 | 3.13 | 8.38 | 24 | 11.2 | 26.4 | 2.22 | 4.16 | 3.92 | 13.9 | 10.8 | 23.6 | 2.72 | 11.2
12 | O=C(N=Nc1c(O)[nH]c2c(Cl)cc(Cl)cc12)c1ccncc1 |  | 39.2 |  | > 100 |  | 69.4 |  | 56.5 |  | 40.2 |  | 99.5 |  | 40.2 |  | 69.2
13 | BrC(Br)(Br)c1cnc2ccccc2n1 | 1.1 | 2.66 | 0.735 | 2.13 | 2.3 | 7.36 | 3.6 | 17.1 | 2.72 | 7.4 | 1.12 | 3.55 | 2.44 | 9.89 | 1.79 | 5.81
